Assay results from patent publication US20250127168A1, “METHOD FOR PATHOGENS, MICROORGANISMS, AND PARASITES INACTIVATION” (New York Blood Center, Inc., priority 2018, published 2025).

How the values were obtained:
[1] = test system: 21-mer synthetic oligodeoxyribonucleotide (SEQ ID NO:1); assay: Reactivity toward nucleic acids, HPLC; type: biochemical; conditions: 10 μM oligonucleotide, 200 μM compound, PBS pH 6.7, 37° C., 6 h
[2] = Neutralization of compound X by ethyl 2-mercaptoacetate (LCMS); type: physicochemical; conditions: PBS, RT; for Peak Areas (LCMS): 100 μM X + 10 mM ethyl 2-mercaptoacetate
Description: 100 μM solution of compound X in phosphate buffered saline was incubated at room temperature with 10 mM of ethyl-2-mercaptoacetate, and the change of the concentration of compound X, as well as the formation of the intermediate compound of neutralization (XXI) and the final compound of neutralization XXII was determined by LCMS analysis of the mixture. The reaction scheme of neutralization is presented below. The peak areas of compound X, intermediate neutralization product, Q1 (compound XXI) and final neutralization product, Q2 (compound XXII) are presented in the Table 8 below, and in FIG. 18.

[3] = test system: synthetic 23-mer oligoribonucleotide (SEQ ID NO:2); assay: Reactivity toward nucleic acids, mass spectrometry; type: biochemical; conditions: 100 μM oligonucleotide, 100 μM compound, PBS pH 7, room temperature, 6 min
[4] = Neutralization of compound X with thiophenol (LCMS); conditions: for ratio of the peak areas of compounds X, XXVI and XXVII: 100 μM X, 10 mM thiophenol, PBS
Description: In the right panel are shown the mass spectra of the corresponding peaks.

[5] = Neutralization of compound X with glutathione; conditions: in presence of glutathione, same conditions
[6] = Neutralization of compound X with methyl thiosalicylate (LCMS); type: physicochemical; conditions: 100 μM compound X, 10 mM methyl thiosalicylate, PBS
Description: The rate of neutralization of […] can be determined by plotting of logarithm of compound X concentration, determined by its peak area against the time of incubation.

[7] = Binding of compound X to sulfonic cation exchange resin (Purolite NRW160, Na+ form) through ion pairs; type: physicochemical; conditions: 50 mg dry beads in one mL of 100 μM solution in PBS
Description: Purolite NRW160 polystyrene divinylbenzene cross-linked resin functionalized with sulfonic groups in the H^+ form, 500 g was transferred into the Na^+ form by the following steps: The beads were washed on a vacuum filter and under a sterile hood with 3 volumes of saturated NaCl solution, followed by two volume of 1 M NaOH. After NaOH sterilization beads were washed by sterile deionized water until the pH of the rinsings became neutral. The beads were incubated with two volumes of methanol for 15 min and after removing of methanol were rinsed again with three volumes of sterile deionized water. After final incubation in methanol (2 volumes) the alcohol was removed by filtration and beads were dried under the vacuum.
Dry beads, 50 mg were added to one mL of 100 μM solution of compound X in phosphate buffered saline.

[8] = test system: whole blood or red blood cells concentrate; assay: Quality of treated whole blood and red blood cells concentrate (complete blood count and biochemistry); conditions: 500 μM for 6 hours at RT, neutralized with sodium thiosulfate; storage at 4-6° C., weekly testing
Description: Ten mL samples of whole blood or red blood cells concentrate (RBCC, 25 mL) were treated with 500 μM compound VI for 6 hours at RT. The residual compound VI was neutralized by the same volume of 10 mM sodium thiosulfate for 2 hours at RT. For controls, identical samples of whole blood or RBCC were treated with saline and sodium thiosulfate without compound VI or with saline only without compound VI and/or thiosulfate. Aliquots of whole blood and RBCC from each sample were subjected to complete blood count and biochemistry analysis using IDEXX Procyte Dx Hematology Analyzer and IDEXX Catalyst Dx Chemistry Analyzer according to manufacturer recommendations. The samples were analyzed immediately after the treatment and re-analyzed after one week for whole blood and every week for 5 weeks of storage at 4-6° C. for RBCC. The following parameters were measured: RBC number, hemoglobin, hematocrit, mean corpuscular volume, mean corpuscular hemoglobin, red cell distribution, reticulocyte count, platelets, mean platelet volume, white blood cells, neutrophils, lymphocytes, monocytes, eosinophils, basophils, chloride, potassium, sodium, glucose, and lactate concentrations.

[9] = Neutralization of compound VI by sodium thiosulfate (LCMS); type: physicochemical; conditions: for first-order rate constant of reaction with Na2S2O3: Compound VI 100 μM, 1 mM Na2S2O3 in PBS
Description: The rate of reaction of Compound VI, 100 μM with 1 mM Na2S2O3 in PBS was determined by LCMS analysis of the reaction mixture (FIG. 19). […] LCMS analysis of the reaction product confirmed that it was the bisthiosulfate ester (compound XXIII formed by reacting of compound VI with two molecules of Na2S2O3.

CN(CCCCN(C)CCCN1CC1)CCCN(C)CCCN1CC1 [Compound X]
covalent adducts with the oligonucleotide (HPLC) [1]: appearance of covalent adducts
first order rate constant of concentration decrease ([2]; 10 mM ethyl 2-mercaptoacetate): 0.022 min⁻¹
Peak Areas (LCMS) ([2]; Time 6 min): 161.9
Peak Areas (LCMS) ([2]; Time 14.5 min): 128.8
Peak Areas (LCMS) ([2]; Time 23.1 min): 123.1
Peak Areas (LCMS) ([2]; Time 31.6 min): 96.3
Peak Areas (LCMS) ([2]; Time 40.2 min): 85
Peak Areas (LCMS) ([2]; Time 48.7 min): 76.9
Peak Areas (LCMS) ([2]; Time 57.3 min): 52.9
Peak Areas (LCMS) ([2]; Time 65.8 min): 42.7
Peak Areas (LCMS) ([2]; Time 74.3 min): 33.1
Peak Areas (LCMS) ([2]; Time 82.9 min): 26
Peak Areas (LCMS) ([2]; Time 91.4 min): 23.2
Peak Areas (LCMS) ([2]; Time 100.0 min): 17.4
Peak Areas (LCMS) ([2]; Time 108.5 min): 14
Peak Areas (LCMS) ([2]; Time 117.1 min): 11.5
Peak Areas (LCMS) ([2]; Time 125.6 min): 7.6
covalent adduct with the oligonucleotide (MS) [3]: covalent mono-adduct
ratio of the peak areas of compounds X, XXVI and XXVII ([4]; after 1 min and 40 sec (100 sec)): 21
ratio of the peak areas of compounds X, XXVI and XXVII ([4]; after 10 min): 3
ratio of the peak areas of compounds X, XXVI and XXVII ([4]; after 20 min): 0.5
half-life of compound X ([4]; in presence of 10 mM of thiophenol): below 1 min
half-life of compound X [5]: 7.5 h
compound X half-life T1/2 [6]: 0.277 h
concentration of compound X in the supernatant [7]: below 30 nM

CN(CCCCN(C)CCCN1CC1)CCCN1CC1 [Compound VI, N^1,N^4-bis(3-(aziridin-1-yl)propyl)-N^1,N^4-dimethylbutane-1,4-diamine]
cellular or biochemical characteristics of treated blood versus controls [8]: No differences in cellular or biochemical characteristics
residual compound VI concentration ([9]; 10 mM Na2S2O3, 25° C., after 2 h, extrapolated): 5.5e-07 pM
first-order rate constant of reaction with Na2S2O3 ([9]; 6° C.): 0.00614 min⁻¹
first-order rate constant of reaction with Na2S2O3 ([9]; 25° C.): 0.0379 min⁻¹
half-live of compound VI ([9]; in 10 mM Na2S2O3 and 25° C., extrapolated from rate): 1.83 min
